pIC50: −log10 of the molar value. Like-named read-outs stand apart in the source and are kept apart here.
Biological target: human LPAR1 (Homo sapiens, UniProt Q92633)
Assay: In vitro functional assay of lysophosphatidic acid receptor 1 activity (calcium flux)
Type: cell-based
[1] = B103 cells stably expressing human LPAR1, calcium flux (Fluo-4 NW) after lysophosphatidic acid (18:1) at EC80, 100 pM to 10 μM, read-out: LPAR1 IC50

Chain of human LPAR1 (Q92633 whole entry): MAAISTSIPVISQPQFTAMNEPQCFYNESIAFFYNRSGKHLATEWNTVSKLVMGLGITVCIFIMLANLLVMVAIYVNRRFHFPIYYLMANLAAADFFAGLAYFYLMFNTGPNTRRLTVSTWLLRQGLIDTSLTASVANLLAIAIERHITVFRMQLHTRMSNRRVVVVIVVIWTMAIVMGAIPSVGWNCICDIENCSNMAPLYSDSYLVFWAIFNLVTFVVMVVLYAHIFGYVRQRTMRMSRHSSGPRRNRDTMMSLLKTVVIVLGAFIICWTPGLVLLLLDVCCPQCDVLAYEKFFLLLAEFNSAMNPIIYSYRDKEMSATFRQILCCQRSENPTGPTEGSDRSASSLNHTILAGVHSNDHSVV

| Structure (SMILES) | pIC50 [1] | pIC50 (LPAR1 IC50) |
| --- | --- | --- |
| Cc1ccc(NC(=O)N(c2ccccc2C(C)C)[C@H]2CC[C@@H](c3cccnc3)CC2)c(OC(F)F)n1 [Example 260, 3-(2-(difluoromethoxy)-6-methylpyridin-3-yl)-1-(2-isopropylphenyl)-1-((1s,4s)-4-(pyridin-3-yl)cyclohexyl)urea] | < 6.00 |  |
| COc1ccc(NC(=O)N(c2ccccc2C(C)(C)F)[C@H]2CC[C@H](C(=O)O)CC2)c(OC(F)F)n1 [Example 278, (1r,4r)-4-(3-(2-(difluoromethoxy)-6-methoxypyridin-3-yl)-1-(2-(2-fluoropropan-2-yl)phenyl)ureido)cyclohexane-1-carboxylic acid] | 7.00 to 8.00 |  |
| Cc1cc(OC(F)F)c(NC(=O)N(c2ccccc2C(C)C)[C@H]2CC[C@H](C(=O)O)CC2)cn1 [Example 157, trans-4-(3-(4-(difluoromethoxy)-6-methylpyridin-3-yl)-1-(2-isopropylphenyl)ureido)cyclohexane-1-carboxylic acid] | 7.00 to 8.00 |  |
| COC(=O)CC1CC(N(C(=O)Nc2ccc(C)nc2OC(F)F)c2ccccc2C(C)C)C1 (stereo not drawn) [Example 159, methyl 2-(3-(3-(2-(difluoromethoxy)-6-methylpyridin-3-yl)-1-(2-isopropylphenyl)ureido)cyclobutyl)acetate] | 6.00 to 7.00 |  |
| COc1ccc(NC(=O)N(c2ccccc2C(C)C)[C@H]2CC[C@H](c3cc(O)no3)CC2)c(OC(F)F)n1 [Example 283, 3-(2-(difluoromethoxy)-6-methoxypyridin-3-yl)-1-((1r,4r)-4-(3-hydroxyisoxazol-5-yl)cyclohexyl)-1-(2-isopropylphenyl)urea] | 7.00 to 8.00 |  |
| CC(=O)N1CCC(N(C(=O)Nc2ccc(C)cn2)c2ccccc2C(C)C)CC1 [Example 143, 1-(1-acetylpiperidin-4-yl)-1-(2-isopropylphenyl)-3-(5-methylpyridin-2-yl)urea] |  | < 6.00 |
| CC(=O)N1CCC(N(C(=O)Nc2ncc(F)cc2Br)c2ccccc2C(C)C)CC1 [Example 137] |  | < 6.00 |
| COc1ccc(NC(=O)N(c2ccccc2C(C)C)[C@H]2CC[C@@H](S(C)(=O)=O)CC2)c(OC(F)F)n1 [Example 257, 3-(2-(difluoromethoxy)-6-methoxypyridin-3-yl)-1-(2-isopropylphenyl)-1-((1s,4s)-4-(methylsulfonyl)cyclohexyl)urea] | > 8.00 |  |
| CC(=O)N1CCC(N(C(=O)Nc2cnc(C)cn2)c2ccccc2C(C)C)CC1 [Example 131] |  | 6.00 to 7.00 |
| Cc1ccc(NC(=O)N(c2ccccc2C(C)C)[C@H]2CC[C@H](c3nnn[nH]3)CC2)c(OC(F)F)n1 [Example 248] | 6.00 to 7.00 |  |
| Cc1ccc(NC(=O)N(c2ccccc2C(C)C)C2CC(C=O)C2)c(OC(F)F)n1 (stereo not drawn) [Example 194, 3-(2-(difluoromethoxy)-6-methylpyridin-3-yl)-1-(3-formylcyclobutyl)-1-(2-isopropylphenyl)urea] | 6.00 to 7.00 |  |
| Cc1ccc(NC(=O)N(c2ccccc2C(C)C)[C@H]2C[C@H](OCc3ccccc3)C2)c(OC(F)F)n1 [Example 23, 1-((1r,3r)-3-(benzyloxy)cyclobutyl)-3-(2-(difluoromethoxy)-6-methylpyridin-3-yl)-1-(2-isopropylphenyl)urea] | 6.00 to 7.00 |  |
| Cc1ccc(NC(=O)N(c2ccccc2C(C)C)[C@H]2CCOC2)c(OC(F)F)n1 [Example 17, (S)-3-(2-(difluoromethoxy)-6-methylpyridin-3-yl)-1-(2-isopropylphenyl)-1-(tetrahydrofuran-3-yl)urea] | 7.00 to 8.00 |  |
| COc1ccc(NC(=O)N(c2ccccc2C(C)C)[C@H]2C[C@]3(C[C@H]3C(=O)O)C2)c(OC(F)F)n1 [Example 150] | > 8.00 |  |
| COc1ccc(NC(=O)N(c2ccccc2C(C)C)[C@H]2C[C@](O)(C(F)(F)C(=O)O)C2)c(OC(F)F)n1 [Example 324] | > 8.00 |  |
| Cc1ccc(NC(=O)N(c2ccccc2C(C)C)C2COC2)c(OC(F)F)n1 [Example 14, 3-(2-(difluoromethoxy)-6-methylpyridin-3-yl)-1-(2-isopropylphenyl)-1-(oxetan-3-yl)urea] | 7.00 to 8.00 |  |
| Cc1ccc(NC(=O)N(c2ccccc2C(C)C)[C@H]2C[C@H](Cc3nnn[nH]3)C2)c(OC(F)F)n1 [Example 191, 1-((1r,3r)-3-((1H-tetrazol-5-yl)methyl)cyclobutyl)-3-(2-(difluoromethoxy)-6-methylpyridin-3-yl)-1-(2-isopropylphenyl)urea] | 7.00 to 8.00 |  |
| Cc1ccc(NC(=O)N(c2ccccc2C(C)C)[C@H]2CC[C@H](O)CC2)c(OC(F)F)n1 [Example 239, 3-(2-(difluoromethoxy)-6-methylpyridin-3-yl)-1-((1r,4r)-4-hydroxycyclohexyl)-1-(2-isopropylphenyl)urea] | 6.00 to 7.00 |  |
| Cc1ccc(NC(=O)N(c2ccccc2C(C)C)[C@H]2C[C@H](O)C2)c(OC(F)F)n1 [Example 181] | 7.00 to 8.00 |  |
| CC(=O)NC1CC(N(C(=O)Nc2ccc(C)nc2OC(F)F)c2ccccc2C(C)C)C1 (stereo not drawn) [Example 271, N-(3-(3-(2-(difluoromethoxy)-6-methylpyridin-3-yl)-1-(2-isopropylphenyl)ureido)cyclobutyl)acetamide] | 6.00 to 7.00 |  |

| Structure (SMILES) | pIC50 [1] | pIC50 (LPAR1 IC50) |
| --- | --- | --- |
| Cc1ccc(NC(=O)N(c2ccccc2C(C)C)C2(C)COC2)c(OC(F)F)n1 [Example 3, 3-(2-(difluoromethoxy)-6-methylpyridin-3-yl)-1-(2-isopropylphenyl)-1-(3-methyloxetan-3-yl)urea] | 6.00 to 7.00 |  |
| Cc1ccc(NC(=O)N(c2ccccc2C(C)C)[C@H]2[C@@H]3CN(C(=O)OC(C)(C)C)C[C@@H]32)c(OC(F)F)n1 [Example 9, tert-butyl (1R,5S,6s)-6-(3-(2-(difluoromethoxy)-6-methylpyridin-3-yl)-1-(2-isopropylphenyl)ureido)-3-azabicyclo[3.1.0]hexane-3-carboxylate] |  | < 6.00 |
| Cc1cc(OC(F)F)c(NC(=O)N(C[C@H]2C[C@H](C(=O)O)C2)c2ccccc2C(C)C)cn1 [Example 227] | 7.00 to 8.00 |  |
| CC(=O)N1CCC(N(C(=O)Nc2cc(F)c(C)nc2OC(F)F)c2ccccc2C(C)C)CC1 [Example 218, 1-(1-acetylpiperidin-4-yl)-3-(2-(difluoromethoxy)-5-fluoro-6-methylpyridin-3-yl)-1-(2-isopropylphenyl)urea] |  | 7.00 to 8.00 |
| CC(C)c1ccccc1N(C(=O)Nc1ccc(O)nc1OC(F)F)[C@H]1CC[C@H](C(=O)O)CC1 [Example 320] | 7.00 to 8.00 |  |
| COC(=O)c1cc(Br)cnc1NC(=O)N(c1ccccc1C(C)C)C1CCN(C(C)=O)CC1 [Example 226] |  | 6.00 to 7.00 |
| COc1ccc(NC(=O)N(c2cccc(C)c2C)C2CCN(C(C)=O)CC2)c(OC(F)F)n1 [Example 42, 1-(1-acetylpiperidin-4-yl)-3-(2-(difluoromethoxy)-6-methoxypyridin-3-yl)-1-(2,3-dimethylphenyl)urea] |  | 6.00 to 7.00 |
| Cc1ccc(NC(=O)N(c2ccccc2C(C)C)C2CCS(=O)(=O)CC2)c(OC(F)F)n1 [Example 20, 3-(2-(difluoromethoxy)-6-methylpyridin-3-yl)-1-(1,1-dioxidotetrahydro-2H-thiopyran-4-yl)-1-(2-isopropylphenyl)urea] | 7.00 to 8.00 |  |
| CC(C)c1ccccc1N(C(=O)Nc1ncc(Cl)cc1OC(F)F)C1CC(CC(=O)O)C1 (stereo not drawn) [Example 175, 2-(3-(3-(5-chloro-3-(difluoromethoxy)pyridin-2-yl)-1-(2-isopropylphenyl)ureido)cyclobutyl)acetic acid] | > 8.00 |  |
| Cc1ccc(NC(=O)N(c2ccccc2C(C)C)[C@H]2CCC[C@@H](C(=O)O)C2)c(OC(F)F)n1 [Example 285] | > 8.00 |  |
| CC(C)c1ccccc1N(C(=O)Nc1ccc(Cl)c(F)c1)[C@H]1CC[C@H](C(=O)O)CC1 [Example 158, trans-4-(3-(4-chloro-3-fluorophenyl)-1-(2-isopropylphenyl)ureido)cyclohexane-1-carboxylic acid] | 7.00 to 8.00 |  |
| COCC(=O)N1CC(N(C(=O)Nc2ccc(C)nc2OC(F)F)c2ccccc2C(C)C)C1 [Example 82, 3-(2-(difluoromethoxy)-6-methylpyridin-3-yl)-1-(2-isopropylphenyl)-1-(1-(2-methoxyacetyl)azetidin-3-yl)urea] | 7.00 to 8.00 |  |
| Cc1ccc(NC(=O)N(c2ccccc2C(C)C)C2CCN(S(C)(=O)=O)CC2)c(OC(F)F)n1 [Example 73, 3-(2-(difluoromethoxy)-6-methylpyridin-3-yl)-1-(2-isopropylphenyl)-1-(1-(methylsulfonyl)piperidin-4-yl)urea] |  | > 8.00 |
| COc1cc(Br)c(F)cc1NC(=O)N(c1ccccc1C(C)C)[C@H]1CC[C@H](C(=O)O)CC1 [Example 299, (1r,4r)-4-(3-(4-bromo-5-fluoro-2-methoxyphenyl)-1-(2-isopropylphenyl)ureido)cyclohexane-1-carboxylic acid] | > 8.00 |  |
| Cc1ccc(NC(=O)N(c2ccccc2C(C)C)C2CCC(NC(=O)c3nccs3)CC2)c(OC(F)F)n1 (stereo not drawn) [Example 268, N-(4-(3-(2-(difluoromethoxy)-6-methylpyridin-3-yl)-1-(2-isopropylphenyl)ureido)cyclohexyl)thiazole-2-carboxamide] | 6.00 to 7.00 |  |
| COc1ccc(NC(=O)N(c2ccccc2C(C)C)C2CCN(C(N)=O)CC2)c(OC(F)F)n1 [Example 65, 4-(3-(2-(difluoromethoxy)-6-methoxypyridin-3-yl)-1-(2-isopropylphenyl)ureido)piperidine-1-carboxamide] |  | 7.00 to 8.00 |
| Cc1ccc(NC(=O)N(c2ccccc2C(C)C)[C@H]2CC[C@@H](S(C)(=O)=O)CC2)c(OC(F)F)n1 [Example 255, 3-(2-(difluoromethoxy)-6-methylpyridin-3-yl)-1-(2-isopropylphenyl)-1-((1s,4s)-4-(methylsulfonyl)cyclohexyl)urea] | 7.00 to 8.00 |  |
| Cc1ccc(NC(=O)N(c2ccccc2C(C)C)C2CCC(NS(C)(=O)=O)CC2)c(OC(F)F)n1 (stereo not drawn) [Example 269, N-(4-(3-(2-(difluoromethoxy)-6-methylpyridin-3-yl)-1-(2-isopropylphenyl)ureido)cyclohexyl)methanesulfonamide] | 7.00 to 8.00 |  |
| Cc1ccc(NC(=O)N(CC23CC(C(=O)O)(C2)C3(F)F)c2ccccc2C(C)C)c(OC(F)F)n1 [Example 235] | 7.00 to 8.00 |  |

Reference: patent US20250034110A1, “LPAR1 ANTAGONISTS AND USES THEREOF” (Pipeline Therapeutics, Inc., priority 2021, published 2025)
